Data published in US20120122860A1, “SOLID FORMS OF SULFONAMIDES AND AMINO ACIDS” (Plexxikon, Inc., priority 2009, published 2012).

How the values were obtained:
[1] = target: Btk (Homo sapiens, UniProt Q06187); test: Kinase activity assay, Btk
[2] = target: Src (Homo sapiens, UniProt P12931); test: Kinase activity assay, Src
[3] = target: Kit (Homo sapiens, UniProt P10721); test: Kinase activity assay, Kit
[4] = target: C-Raf (Homo sapiens, UniProt P04049); test: Kinase activity assay, C-Raf
[5] = target: Kdr (Homo sapiens, UniProt P35968); test: Kinase activity assay, Kdr
[6] = target: B-Raf (Homo sapiens, UniProt P15056); test: Kinase activity assay, B-Raf; assay type: biochemical; settings: read-out: activity toward kinase B-Raf, IC50
[7] = target: T1, TEC (Homo sapiens, UniProt P42680); test: Kinase activity assay, TEC
T1 sequence (P42680 1-631): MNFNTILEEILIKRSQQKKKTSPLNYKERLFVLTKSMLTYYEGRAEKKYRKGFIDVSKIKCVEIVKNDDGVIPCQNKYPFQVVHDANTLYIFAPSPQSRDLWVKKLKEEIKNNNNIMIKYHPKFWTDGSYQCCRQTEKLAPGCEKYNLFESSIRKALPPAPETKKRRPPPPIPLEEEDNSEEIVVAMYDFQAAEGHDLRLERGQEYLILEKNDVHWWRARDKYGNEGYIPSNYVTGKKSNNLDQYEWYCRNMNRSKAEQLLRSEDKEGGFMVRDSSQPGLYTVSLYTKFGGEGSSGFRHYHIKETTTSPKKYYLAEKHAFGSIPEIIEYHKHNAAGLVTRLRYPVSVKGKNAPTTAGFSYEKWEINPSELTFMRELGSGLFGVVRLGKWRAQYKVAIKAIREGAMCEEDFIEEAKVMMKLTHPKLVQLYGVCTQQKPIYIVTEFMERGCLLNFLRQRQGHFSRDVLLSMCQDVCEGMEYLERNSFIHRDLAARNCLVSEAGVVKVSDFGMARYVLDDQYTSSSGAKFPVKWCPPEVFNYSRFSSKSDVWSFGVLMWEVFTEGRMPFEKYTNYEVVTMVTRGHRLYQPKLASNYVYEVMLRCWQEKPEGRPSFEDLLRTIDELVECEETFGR

[8] = target: B-Raf V600E (Homo sapiens, UniProt P15056, V600E); test: Kinase activity assay, B-Raf V600E; assay type: biochemical; settings: read-out: activity toward kinase B-Raf V600E, IC50
[9] = target: Fms (Homo sapiens, UniProt P07333); test: Kinase activity assay, Fms
[10] = target: T2, A-Raf (Homo sapiens, UniProt P10398); test: Kinase activity assay, A-Raf
T2 sequence (P10398 1-606): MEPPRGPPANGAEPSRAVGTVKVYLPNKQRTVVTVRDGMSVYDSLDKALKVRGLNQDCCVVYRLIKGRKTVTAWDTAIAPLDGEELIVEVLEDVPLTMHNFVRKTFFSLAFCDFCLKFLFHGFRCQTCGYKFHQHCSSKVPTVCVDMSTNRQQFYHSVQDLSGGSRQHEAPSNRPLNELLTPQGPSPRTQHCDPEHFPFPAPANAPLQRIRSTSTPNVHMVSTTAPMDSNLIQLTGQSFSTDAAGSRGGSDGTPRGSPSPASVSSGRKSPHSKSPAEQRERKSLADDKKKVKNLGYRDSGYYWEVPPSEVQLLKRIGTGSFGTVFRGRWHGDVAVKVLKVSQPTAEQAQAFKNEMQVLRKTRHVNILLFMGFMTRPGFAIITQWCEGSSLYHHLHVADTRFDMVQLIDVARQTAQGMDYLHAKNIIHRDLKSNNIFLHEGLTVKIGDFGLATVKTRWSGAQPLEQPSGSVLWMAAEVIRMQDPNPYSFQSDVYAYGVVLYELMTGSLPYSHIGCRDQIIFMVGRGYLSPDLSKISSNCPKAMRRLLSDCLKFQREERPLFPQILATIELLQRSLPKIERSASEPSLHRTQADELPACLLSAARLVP

[11] = target: MAP4K4 (Homo sapiens, UniProt O95819); test: Kinase activity assay, MAP4K4
MAP4K4, sequence (O95819 whole entry): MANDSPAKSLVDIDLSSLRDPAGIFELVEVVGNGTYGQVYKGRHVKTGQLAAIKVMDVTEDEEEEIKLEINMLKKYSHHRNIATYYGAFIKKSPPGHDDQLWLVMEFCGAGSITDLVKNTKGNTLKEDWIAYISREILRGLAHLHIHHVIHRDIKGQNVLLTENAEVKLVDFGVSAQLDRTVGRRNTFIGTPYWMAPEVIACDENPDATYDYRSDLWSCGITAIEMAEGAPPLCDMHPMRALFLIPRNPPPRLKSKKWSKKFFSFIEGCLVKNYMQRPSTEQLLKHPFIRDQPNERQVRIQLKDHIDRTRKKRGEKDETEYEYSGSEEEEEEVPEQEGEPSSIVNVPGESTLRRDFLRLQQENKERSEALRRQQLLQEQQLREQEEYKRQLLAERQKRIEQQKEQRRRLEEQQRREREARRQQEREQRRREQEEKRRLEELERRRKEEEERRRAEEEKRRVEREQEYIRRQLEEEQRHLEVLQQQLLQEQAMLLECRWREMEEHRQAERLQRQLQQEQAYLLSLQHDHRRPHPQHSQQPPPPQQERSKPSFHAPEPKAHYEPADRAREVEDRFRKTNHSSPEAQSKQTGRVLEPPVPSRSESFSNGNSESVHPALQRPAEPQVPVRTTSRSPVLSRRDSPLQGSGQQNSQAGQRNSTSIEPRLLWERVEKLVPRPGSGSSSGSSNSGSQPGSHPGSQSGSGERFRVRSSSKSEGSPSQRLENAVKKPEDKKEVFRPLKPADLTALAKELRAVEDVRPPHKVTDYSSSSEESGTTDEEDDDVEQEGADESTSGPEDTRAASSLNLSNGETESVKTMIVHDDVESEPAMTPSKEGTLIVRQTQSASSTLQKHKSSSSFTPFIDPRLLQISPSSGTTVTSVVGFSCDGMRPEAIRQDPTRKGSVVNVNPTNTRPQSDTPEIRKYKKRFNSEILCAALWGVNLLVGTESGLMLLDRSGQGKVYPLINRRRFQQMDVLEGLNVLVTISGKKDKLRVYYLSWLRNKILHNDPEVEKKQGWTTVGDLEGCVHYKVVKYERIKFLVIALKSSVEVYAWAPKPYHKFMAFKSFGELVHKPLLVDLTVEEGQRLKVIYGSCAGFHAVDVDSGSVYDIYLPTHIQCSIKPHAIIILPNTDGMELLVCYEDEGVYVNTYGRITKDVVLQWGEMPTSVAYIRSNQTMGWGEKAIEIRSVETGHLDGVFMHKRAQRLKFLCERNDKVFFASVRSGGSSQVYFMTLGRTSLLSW

B-Raf V600E, sequence (P15056 whole entry V600E): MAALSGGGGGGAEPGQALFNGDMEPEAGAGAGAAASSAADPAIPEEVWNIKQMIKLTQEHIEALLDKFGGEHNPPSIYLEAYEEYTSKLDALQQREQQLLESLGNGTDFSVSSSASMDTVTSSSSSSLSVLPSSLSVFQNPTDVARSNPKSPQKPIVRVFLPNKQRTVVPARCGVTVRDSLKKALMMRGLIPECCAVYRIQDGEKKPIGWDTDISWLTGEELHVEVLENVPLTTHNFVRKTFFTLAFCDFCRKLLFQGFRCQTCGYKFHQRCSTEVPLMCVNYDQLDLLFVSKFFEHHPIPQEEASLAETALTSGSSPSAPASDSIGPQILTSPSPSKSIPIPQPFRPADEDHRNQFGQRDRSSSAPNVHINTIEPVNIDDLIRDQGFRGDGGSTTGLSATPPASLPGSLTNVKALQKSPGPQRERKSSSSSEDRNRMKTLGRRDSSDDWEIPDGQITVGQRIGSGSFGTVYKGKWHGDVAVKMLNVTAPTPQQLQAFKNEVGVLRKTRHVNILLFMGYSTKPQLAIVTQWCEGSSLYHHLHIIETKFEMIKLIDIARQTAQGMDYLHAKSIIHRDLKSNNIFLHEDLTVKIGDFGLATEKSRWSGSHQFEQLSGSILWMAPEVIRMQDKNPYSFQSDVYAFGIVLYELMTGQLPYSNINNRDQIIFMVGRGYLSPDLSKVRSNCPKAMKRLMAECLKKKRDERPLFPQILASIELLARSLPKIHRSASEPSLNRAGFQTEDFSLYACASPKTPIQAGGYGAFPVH
C-Raf, sequence (P04049 whole entry): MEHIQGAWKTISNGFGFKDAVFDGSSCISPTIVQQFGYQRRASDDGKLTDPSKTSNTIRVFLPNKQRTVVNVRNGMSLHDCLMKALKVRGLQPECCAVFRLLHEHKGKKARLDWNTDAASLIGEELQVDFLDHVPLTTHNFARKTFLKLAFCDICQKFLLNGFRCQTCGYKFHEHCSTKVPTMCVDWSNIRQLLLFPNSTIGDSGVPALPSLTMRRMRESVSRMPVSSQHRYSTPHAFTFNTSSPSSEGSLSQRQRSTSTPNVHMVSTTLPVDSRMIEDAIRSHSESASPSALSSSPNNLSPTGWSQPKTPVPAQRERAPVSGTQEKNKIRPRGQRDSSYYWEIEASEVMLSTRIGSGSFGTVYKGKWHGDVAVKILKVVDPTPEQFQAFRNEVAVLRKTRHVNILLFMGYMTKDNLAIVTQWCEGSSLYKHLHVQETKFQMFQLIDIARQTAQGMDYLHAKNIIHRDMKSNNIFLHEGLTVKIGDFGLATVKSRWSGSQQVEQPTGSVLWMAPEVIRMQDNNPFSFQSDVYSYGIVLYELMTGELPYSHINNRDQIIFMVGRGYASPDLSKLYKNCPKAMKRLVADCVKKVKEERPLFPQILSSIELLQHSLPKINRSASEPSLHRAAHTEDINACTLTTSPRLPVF
B-Raf, sequence (P15056 whole entry): as the sequence (P15056 whole entry V600E) above, with E600V counted along it
Kit, sequence (P10721 26-976): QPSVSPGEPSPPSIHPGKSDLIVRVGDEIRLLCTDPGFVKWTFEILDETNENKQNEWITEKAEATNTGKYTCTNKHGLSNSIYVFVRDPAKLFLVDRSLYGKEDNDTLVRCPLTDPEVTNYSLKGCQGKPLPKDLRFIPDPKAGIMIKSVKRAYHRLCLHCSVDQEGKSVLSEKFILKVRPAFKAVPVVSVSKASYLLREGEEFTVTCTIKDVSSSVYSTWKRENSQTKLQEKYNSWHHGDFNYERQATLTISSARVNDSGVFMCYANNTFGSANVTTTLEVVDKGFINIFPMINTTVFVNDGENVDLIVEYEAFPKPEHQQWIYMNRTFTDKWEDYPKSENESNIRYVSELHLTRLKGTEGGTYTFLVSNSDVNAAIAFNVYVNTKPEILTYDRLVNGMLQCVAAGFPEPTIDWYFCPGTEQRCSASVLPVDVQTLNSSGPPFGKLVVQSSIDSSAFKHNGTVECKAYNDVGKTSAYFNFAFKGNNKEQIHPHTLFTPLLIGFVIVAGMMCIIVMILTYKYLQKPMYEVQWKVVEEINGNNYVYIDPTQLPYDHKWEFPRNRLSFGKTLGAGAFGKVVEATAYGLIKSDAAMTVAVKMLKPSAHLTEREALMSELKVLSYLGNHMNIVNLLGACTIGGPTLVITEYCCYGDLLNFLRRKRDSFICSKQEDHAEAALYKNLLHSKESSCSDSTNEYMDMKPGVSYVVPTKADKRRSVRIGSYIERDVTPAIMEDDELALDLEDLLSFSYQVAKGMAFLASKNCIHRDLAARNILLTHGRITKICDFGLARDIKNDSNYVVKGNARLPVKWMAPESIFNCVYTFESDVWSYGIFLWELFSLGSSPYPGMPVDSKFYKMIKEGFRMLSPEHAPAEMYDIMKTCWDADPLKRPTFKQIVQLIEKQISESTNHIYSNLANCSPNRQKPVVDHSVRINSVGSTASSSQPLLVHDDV
Kdr, sequence (P35968 20-1356): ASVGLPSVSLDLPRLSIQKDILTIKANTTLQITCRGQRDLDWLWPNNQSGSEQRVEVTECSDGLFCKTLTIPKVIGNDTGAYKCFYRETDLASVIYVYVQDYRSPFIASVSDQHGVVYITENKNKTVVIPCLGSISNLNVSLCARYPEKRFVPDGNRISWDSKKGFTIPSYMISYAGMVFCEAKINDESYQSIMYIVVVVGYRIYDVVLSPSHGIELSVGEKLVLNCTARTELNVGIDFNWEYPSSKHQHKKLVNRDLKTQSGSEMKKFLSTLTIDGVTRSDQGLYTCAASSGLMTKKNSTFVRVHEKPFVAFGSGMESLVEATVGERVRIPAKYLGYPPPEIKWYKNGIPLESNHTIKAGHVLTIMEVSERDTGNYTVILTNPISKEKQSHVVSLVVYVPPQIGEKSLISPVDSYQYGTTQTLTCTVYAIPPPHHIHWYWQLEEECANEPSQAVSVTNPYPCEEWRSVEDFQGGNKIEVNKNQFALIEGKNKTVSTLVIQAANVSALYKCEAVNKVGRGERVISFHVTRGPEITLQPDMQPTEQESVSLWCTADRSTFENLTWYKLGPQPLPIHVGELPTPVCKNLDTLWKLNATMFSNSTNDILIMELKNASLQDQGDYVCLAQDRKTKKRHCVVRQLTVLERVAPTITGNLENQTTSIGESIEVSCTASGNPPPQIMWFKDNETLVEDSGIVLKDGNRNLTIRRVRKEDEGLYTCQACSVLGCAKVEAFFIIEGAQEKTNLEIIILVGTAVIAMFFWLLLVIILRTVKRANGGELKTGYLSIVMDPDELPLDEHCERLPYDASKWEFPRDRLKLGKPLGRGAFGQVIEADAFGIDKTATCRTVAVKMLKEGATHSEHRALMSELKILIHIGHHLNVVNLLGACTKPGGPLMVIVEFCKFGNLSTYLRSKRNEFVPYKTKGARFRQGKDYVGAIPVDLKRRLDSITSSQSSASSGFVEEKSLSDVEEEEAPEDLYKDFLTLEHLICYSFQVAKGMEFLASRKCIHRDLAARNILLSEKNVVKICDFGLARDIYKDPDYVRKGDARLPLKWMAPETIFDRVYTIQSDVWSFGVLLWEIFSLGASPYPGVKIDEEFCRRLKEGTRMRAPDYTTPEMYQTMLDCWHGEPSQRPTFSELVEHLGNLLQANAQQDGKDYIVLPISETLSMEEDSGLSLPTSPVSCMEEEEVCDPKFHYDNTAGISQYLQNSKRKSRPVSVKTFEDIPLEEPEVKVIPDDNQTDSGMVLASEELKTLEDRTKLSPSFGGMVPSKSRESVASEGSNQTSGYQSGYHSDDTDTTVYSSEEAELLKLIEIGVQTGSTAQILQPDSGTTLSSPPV

Row | IC50 [1] [µM] | IC50 [2] [µM] | IC50 [3] [µM] | IC50 [4] [µM] | IC50 [5] [µM] | IC50 [6] [µM] | IC50 [7] [µM] | IC50 [8] [µM] | IC50 [9] [µM] | IC50 [10] [µM] | IC50 [11] [µM] | Structure (SMILES)
1 | ≤ 10 | ≤ 10 | ≤ 10 | ≤ 10 | ≤ 10 | ≤ 10 | ≤ 10 | ≤ 10 | – | – | – | N#Cc1cnc2[nH]cc(C(=O)c3cccc(NS(=O)(=O)c4ccccc4F)c3F)c2c1 [P-2051, N-[3-(5-Cyano-1H-pyrrolo[2,3-b]pyridine-3-carbonyl)-2-fluoro-phenyl]-2-fluoro-benzenesulfonamide]
2 | ≤ 10 | ≤ 10 | ≤ 10 | ≤ 10 | ≤ 10 | ≤ 10 | ≤ 10 | ≤ 10 | – | – | – | N#Cc1cnc2[nH]cc(C(=O)c3cccc(NS(=O)(=O)c4cc(F)ccc4F)c3F)c2c1 [P-2052, N-[3-(5-Cyano-1H-pyrrolo[2,3-b]pyridine-3-carbonyl)-2-fluoro-phenyl]-2,5-difluoro-benzenesulfonamide]
3 | ≤ 10 | ≤ 10 | – | ≤ 10 | – | ≤ 10 | ≤ 10 | ≤ 10 | – | – | – | N#Cc1cnc2[nH]cc(C(=O)c3cccc(NS(=O)(=O)c4cccc(F)c4)c3F)c2c1 [P-2053, N-[3-(5-Cyano-1H-pyrrolo[2,3-b]pyridine-3-carbonyl)-2-fluoro-phenyl]-3-fluoro-benzenesulfonamide]
4 | ≤ 10 | ≤ 10 | – | ≤ 10 | – | ≤ 10 | ≤ 10 | ≤ 10 | – | – | – | N#Cc1cnc2[nH]cc(C(=O)c3cccc(NS(=O)(=O)c4ccccn4)c3F)c2c1 [P-2087, Pyridine-2-sulfonic acid [3-(5-cyano-1H-pyrrolo[2,3-b]pyridine-3-carbonyl)-2-fluoro-phenyl]-amide]
5 | ≤ 10 | ≤ 10 | ≤ 10 | ≤ 10 | ≤ 10 | ≤ 10 | – | ≤ 10 | ≤ 10 | – | – | Cn1cc(-c2cnc3[nH]cc(C(=O)c4cc(NS(=O)(=O)c5cccc(C(F)(F)F)c5)ccc4F)c3c2)cn1 [P-2101, N-{4-Fluoro-3-[5-(1-methyl-1H-pyrazol-4-yl)-1H-pyrrolo[2,3-b]pyridine-3-carbonyl]-phenyl}-3-trifluoromethyl-benzenesulfonamide]
6 | ≤ 10 | ≤ 10 | ≤ 10 | ≤ 10 | ≤ 10 | ≤ 10 | – | ≤ 10 | ≤ 10 | – | – | CCCS(=O)(=O)Nc1ccc(F)c(C(=O)c2c[nH]c3ncc(-c4ccc(OCCCN(C)C)nc4)cc23)c1F [P-2178, Propane-1-sulfonic acid (3-{5-[6-(3-dimethylamino-propoxy)-pyridin-3-yl]-1H-pyrrolo[2,3-b]pyridine-3-carbonyl}-2,4-difluoro-phenyl)-amide]
7 | ≤ 10 | ≤ 10 | ≤ 10 | ≤ 10 | ≤ 10 | ≤ 10 | – | ≤ 10 | ≤ 10 | – | ≤ 10 | CCCS(=O)(=O)Nc1ccc(F)c(C(=O)c2c[nH]c3ncc(-c4ccc(C#CCN(CC)CC)nc4)cc23)c1F [P-2222, Propane-1-sulfonic acid (3-{5-[6-(3-diethylamino-prop-1-ynyl)-pyridin-3-yl]-1H-pyrrolo[2,3-b]pyridine-3-carbonyl}-2,4-difluoro-phenyl)-amide]
8 | ≤ 10 | ≤ 10 | ≤ 10 | ≤ 10 | ≤ 10 | ≤ 10 | – | ≤ 10 | – | – | ≤ 10 | CCCS(=O)(=O)Nc1ccc(F)c(C(=O)c2c[nH]c3ncc(-c4ccc(N(C)C)nc4)cc23)c1F [P-2229, Propane-1-sulfonic acid {3-[5-(6-dimethylamino-pyridin-3-yl)-1H-pyrrolo[2,3-b]pyridine-3-carbonyl]-2,4-difluoro-phenyl}-amide]
9 | ≤ 10 | ≤ 10 | ≤ 10 | ≤ 10 | ≤ 10 | ≤ 10 | – | ≤ 10 | ≤ 10 | ≤ 10 | ≤ 10 | CCCS(=O)(=O)Nc1ccc(F)c(C(=O)c2c[nH]c3ncc(-c4ccc(OCCCN5CCCC5)nc4)cc23)c1F [P-2235, Propane-1-sulfonic acid (2,4-difluoro-3-{5-[6-(3-pyrrolidin-1-yl-propoxy)-pyridin-3-yl]-1H-pyrrolo[2,3-b]pyridine-3-carbonyl}-phenyl)-amide]
10 | ≤ 10 | ≤ 10 | ≤ 10 | – | ≤ 10 | ≤ 10 | – | ≤ 10 | ≤ 10 | – | ≤ 10 | CCS(=O)(=O)Nc1ccc(F)c(C(=O)c2c[nH]c3ncc(-c4ccc(F)cc4)cc23)c1F [P-2270, Ethanesulfonic acid {2,4-difluoro-3-[5-(4-fluoro-phenyl)-1H-pyrrolo[2,3-b]pyridine-3-carbonyl]-phenyl}-amide]
11 | ≤ 10 | ≤ 10 | – | ≤ 10 | – | ≤ 10 | ≤ 10 | ≤ 10 | – | – | – | N#Cc1cnc2[nH]cc(C(=O)c3cccc(NS(=O)(=O)CC(F)(F)F)c3F)c2c1 [P-2414, 2,2,2-Trifluoro-ethanesulfonic acid [3-(5-cyano-1H-pyrrolo[2,3-b]pyridine-3-carbonyl)-2-fluoro-phenyl]-amide]
12 | ≤ 10 | – | – | ≤ 10 | – | ≤ 10 | – | ≤ 10 | – | ≤ 10 | – | N#Cc1cnc2[nH]cc(C(=O)c3cccc(NS(=O)(=O)N4CCCC4)c3F)c2c1 [P-2420, Pyrrolidine-1-sulfonic acid [3-(5-cyano-1H-pyrrolo[2,3-b]pyridine-3-carbonyl)-2-fluoro-phenyl]-amide]
13 | ≤ 10 | ≤ 10 | ≤ 10 | ≤ 10 | ≤ 10 | ≤ 10 | – | ≤ 10 | ≤ 10 | – | – | CCCS(=O)(=O)Nc1ccc(F)c(C(=O)c2c[nH]c3ncc(-c4cnn(C)c4)cc23)c1 [P-2431, Propane-1-sulfonic acid {4-fluoro-3-[5-(1-methyl-1H-pyrazol-4-yl)-1H-pyrrolo[2,3-b]pyridine-3-carbonyl]-phenyl}-amide]
14 | ≤ 10 | – | – | – | – | – | – | – | – | – | ≤ 10 | O=C(c1cccc(NS(=O)(=O)C2CCCCC2)c1)c1c[nH]c2ncc(F)cc12 [P-2462, Cyclohexanesulfonic acid [3-(5-fluoro-1H-pyrrolo[2,3-b]pyridine-3-carbonyl)-phenyl]-amide]

Row | Structure (SMILES) | IC50 [1] [µM] | IC50 [2] [µM] | IC50 [3] [µM] | IC50 [4] [µM] | IC50 [5] [µM] | IC50 [6] [µM] | IC50 [7] [µM] | IC50 [8] [µM] | IC50 [9] [µM] | IC50 [10] [µM] | IC50 [11] [µM]
15 | CCCS(=O)(=O)Nc1ccc(F)c(C(=O)c2c[nH]c3ncc(-c4ccc(NS(C)(=O)=O)cc4)cc23)c1F [P-2165, Propane-1-sulfonic acid {2,4-difluoro-3-[5-(4-methanesulfonylamino-phenyl)-1H-pyrrolo[2,3-b]pyridine-3-carbonyl]-phenyl}-amide] | ≤ 10 | ≤ 10 | ≤ 10 | ≤ 10 | ≤ 10 | ≤ 10 | – | ≤ 10 | ≤ 10 | ≤ 10 | –
